Experiment [1] addresses T1, GRP receptor (Mus musculus, UniProt P21729).
T1 construct: endogenous in cells; host or cells: Swiss 3T3 fibroblasts (intact monolayers)
The experiment in a line: Procedure A: Binding Inhibition Studies (competition with [3H-Phe15]GRP15-27). Set-up: species or system murine. Particulars: Swiss 3T3 cells; 3 nM [3H-Phe15]GRP15-27; 60 minutes at 15° C. The method, then:
(§1) The activity of the peptide derivatives of the present invention as GRP antagonists was determined in competitive binding assays with a radio-active GRP derivative. Swiss 3T3 fibroblasts were used in these tests as the source of GRP receptor. Because these cells respond to GRP binding with a rapid increase in DNA synthesis, compounds that bind to the GRP receptor can also be tested for their ability to stimulate DNA synthesis. New DNA synthesis is one of the early steps in cell division and is widely accepted as a measure of mitogenicity or cell growth. […] Compounds which block DNA synthesis are mitogenic antagonists.
Swiss 3T3 cells, obtained from Dr. K. Brown (Institute of Animal Physiology, Cambridge, U.K.), were grown to confluency in Costar 12 -well plates containing DMEM (Gibco) supplemented with 10% fetal bovine serum, 2 mM glutamine and 1% penicillin-streptomycin. The cells were washed twice with binding buffer [1:1 DMEM:Waymouths MB752/1 medium, plus 1 mg/ml BSA (Fraction V, Calbiochem)]. The antagonist was dissolved in 10 mM HCl, and diluted to the appropriate concentration in binding buffer. The antagonist was then added to the cells, followed by [^3 H Phe^15 ]GRP15-27 at a final concentration of 3 nM. After 60 minutes incubation at 15° C., the supernatant liquid was removed and the cell monolayer rinsed four times with washing buffer (150 mM NaCl, 20 mM Na2 HPO4, 5mM KCl, 1.8 mM KH2 PO4, 1 mg/ml BSA) The cells were then lysed with 1 ml/well of lysis buffer (1% Triton X-100, 0.1% BSA), and the solution was aspirated into scintillation vials for counting. Each data point was collected in triplicate.

For experiment [2], the system named is Swiss 3T3 cells. The experiment in a line: Procedure C: Mitogenesis Inhibition (GRP-stimulated 3H-thymidine uptake). The format is cell-based, murine. The conditions noted are these: GRP plus antagonist, 48 hours. On the procedure: as §1, with “antagonists. […] Swiss 3T3 cells were grown in monolayer culture in 24 -well plates (Costar) in serum free DMEM for 48 hours, at which time the GRP or a GRP homologue. The antagonist and 23 nM ^3 H-thymidine were added. After an additional 48 hours, the cell monolayer was washed twice with PBS, and the cells were then removed with 1 ml 10x trypsin containing 5 mM EDTA. The cells were harvested with a Skatron filter apparatus, and the filters counted in a scintillation counter.” for “antagonists.”

Residues, ends and D or L forms follow the SMILES beside them. *: point of attachment. NH(2-Me-nonan-4R-yl) = CCCCC[C@H](CC(C)C)N*; NHCH(iBu)2 = CC(C)CC(CC(C)C)N*; X1 = CCCCC[C@@H](CC(C)C)N*; X2 = CCCC=C[C@H](CC(C)C)N*; Boc = CC(C)(C)OC(=O)*; Piv = CC(C)(C)C(=O)*; Ms = CS(=O)(=O)*

T1 sequence (P21729 whole entry): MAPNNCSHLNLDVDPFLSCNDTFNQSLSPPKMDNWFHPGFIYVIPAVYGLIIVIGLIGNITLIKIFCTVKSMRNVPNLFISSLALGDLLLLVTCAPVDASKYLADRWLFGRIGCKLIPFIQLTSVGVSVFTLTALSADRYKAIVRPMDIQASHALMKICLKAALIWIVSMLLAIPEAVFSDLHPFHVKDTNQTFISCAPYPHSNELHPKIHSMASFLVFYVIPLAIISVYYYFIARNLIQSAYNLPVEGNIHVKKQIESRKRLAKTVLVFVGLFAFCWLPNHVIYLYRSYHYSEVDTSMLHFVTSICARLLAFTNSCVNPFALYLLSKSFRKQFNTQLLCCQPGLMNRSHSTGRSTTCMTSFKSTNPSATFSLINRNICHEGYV

The IC50 is the concentration needed to halve the response being measured. For the compound `CCCCC[C@H](CC(C)C)NC(=O)[C@H](Cc1c[nH]cn1)NC(=O)CNC(=O)[C@@H](NC(=O)[C@H](C)NC(=O)[C@H](Cc1c[nH]c2ccccc12)NC(=O)[C@H](Cc1c[nH]cn1)NC(C)=O)C(C)C` [1(R)] (Ac-HWAVGH-{NH(2-Me-nonan-4R-yl)}), the IC50 in experiment [1] is 2 nM.
In experiment [1], `CCCCC[C@@H](CC(C)C)NC(=O)[C@H](Cc1c[nH]cn1)NC(=O)CNC(=O)[C@@H](NC(=O)[C@H](C)NC(=O)[C@H](Cc1c[nH]c2ccccc12)NC(=O)[C@H](Cc1c[nH]cn1)NC(C)=O)C(C)C` [1(S)] (Ac-HWAVGH-X1) returned an IC50 of 17 nM.
Turning to `CCCC=C[C@H](CC(C)C)NC(=O)[C@H](Cc1c[nH]cn1)NC(=O)CNC(=O)[C@@H](NC(=O)[C@H](C)NC(=O)[C@H](Cc1c[nH]c2ccccc12)NC(=O)[C@H](Cc1c[nH]cn1)NC(C)=O)C(C)C` [2(S)] (Ac-HWAVGH-X2), in experiment [1], the IC50 came to 11 nM.
The compound `CCCCC[C@H](CC(C)C)NC(=O)[C@H](Cc1c[nH]cn1)NC(=O)CNC(=O)[C@@H](NC(=O)[C@H](C)NC(=O)[C@H](Cc1c[nH]c2ccccc12)NC(=O)[C@H](Cc1c[nH]cn1)NS(C)(=O)=O)C(C)C` [3(R)] (Ms-HWAVGH-{NH(2-Me-nonan-4R-yl)}) registered an IC50 in experiment [1] of 15 nM.
As to `CCCCC[C@H](CC(C)C)NC(=O)[C@H](Cc1c[nH]cn1)NC(=O)CNC(=O)[C@@H](NC(=O)[C@H](C)NC(=O)[C@H](Cc1c[nH]c2ccccc12)NC(=O)[C@H](Cc1c[nH]cn1)NC(=O)C(C)(C)C)C(C)C` [4(R)] (Piv-HWAVGH-{NH(2-Me-nonan-4R-yl)}), the IC50 in experiment [1] came out at 3 nM; in experiment [2] it was 2 nM.
As to `CCCCC[C@H](CC(C)C)NC(=O)[C@H](Cc1c[nH]cn1)NC(=O)CNC(=O)[C@@H](NC(=O)[C@H](C)NC(=O)[C@H](Cc1c[nH]c2ccccc12)NC(=O)[C@H](Cc1c[nH]cn1)NC(=O)OC(C)(C)C)C(C)C` [5(R)] (Boc-HWAVGH-{NH(2-Me-nonan-4R-yl)}), the 50% inhibitory concentration (IC50) in experiment [1] was determined as 2 nM.
For the compound `CC(=O)N[C@@H](Cc1c[nH]cn1)C(=O)N[C@@H](Cc1c[nH]c2ccccc12)C(=O)N[C@@H](C)C(=O)N[C@H](C(=O)NCC(=O)N[C@@H](Cc1c[nH]cn1)C(=O)NC(CC(C)C)CC(C)C)C(C)C` [Example 6] (Ac-HWAVGH-{NHCH(iBu)2}), the IC50 in experiment [1] came out at 2 nM.

For the origin of these results see patent US4943561A, “Gastrin releasing peptide antagonist” (Merck & Co., Inc., priority 1988, dated 1990).
